Legend:
[1] = target: T1, recombinant human cannabinoid receptor CB1 (Homo sapiens, UniProt P21554); assay: Cannabinoid receptor radioligand binding assay, [3H]-CP 55,940 displacement, hCB1
T1 construct: (cDNA clone) CNR01L000
Procedure, shortened: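 Displacement of 0.5 nM [3H]-CP 55,940 (1 μM unlabeled CP 55,940 for nonspecific) measured by filtration and scintillation counting. Binding ran 90 min at room temperature in pH 7.5 Tris buffer with 0.1% fatty-acid-free BSA, using recombinant hCB1 HEK-293 membranes at 2-10 μg protein.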

[2] = target: T2, recombinant human cannabinoid receptor CB2 (Homo sapiens, UniProt P34972); assay: Cannabinoid receptor radioligand binding assay, [3H]-CP 55,940 displacement, hCB2
T2 construct: (cDNA clone) CNR0200000
T2 sequence (P34972 whole entry): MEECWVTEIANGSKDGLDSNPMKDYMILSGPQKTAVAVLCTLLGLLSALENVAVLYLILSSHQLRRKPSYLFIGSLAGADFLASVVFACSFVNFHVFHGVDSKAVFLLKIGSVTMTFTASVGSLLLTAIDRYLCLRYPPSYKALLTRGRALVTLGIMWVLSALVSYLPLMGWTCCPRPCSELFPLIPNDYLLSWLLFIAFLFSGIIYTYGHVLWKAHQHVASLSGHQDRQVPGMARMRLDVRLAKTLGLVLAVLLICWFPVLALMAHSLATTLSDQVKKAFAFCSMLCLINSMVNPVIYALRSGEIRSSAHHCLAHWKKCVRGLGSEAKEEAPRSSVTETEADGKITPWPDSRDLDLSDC
Procedure, shortened: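 Receptor source: membrane pellet (40,000×g) from transfected cells, stored in HEPES pH 7.4/MgCl2/EDTA/sucrose buffer.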

[3] = target: T3, human CB1 receptors (Homo sapiens, UniProt P21554); assay: cAMP assay in HEK-293 cells, hCB1 agonist; type: cell-based; details: inhibition of forskolin-stimulated cAMP, HEK-293 cells; for EC50: read-out: hCB1 EC50 (cAMP ag)
T3 construct: (cDNA clone) CNR01L000
T3 sequence (P21554 whole entry): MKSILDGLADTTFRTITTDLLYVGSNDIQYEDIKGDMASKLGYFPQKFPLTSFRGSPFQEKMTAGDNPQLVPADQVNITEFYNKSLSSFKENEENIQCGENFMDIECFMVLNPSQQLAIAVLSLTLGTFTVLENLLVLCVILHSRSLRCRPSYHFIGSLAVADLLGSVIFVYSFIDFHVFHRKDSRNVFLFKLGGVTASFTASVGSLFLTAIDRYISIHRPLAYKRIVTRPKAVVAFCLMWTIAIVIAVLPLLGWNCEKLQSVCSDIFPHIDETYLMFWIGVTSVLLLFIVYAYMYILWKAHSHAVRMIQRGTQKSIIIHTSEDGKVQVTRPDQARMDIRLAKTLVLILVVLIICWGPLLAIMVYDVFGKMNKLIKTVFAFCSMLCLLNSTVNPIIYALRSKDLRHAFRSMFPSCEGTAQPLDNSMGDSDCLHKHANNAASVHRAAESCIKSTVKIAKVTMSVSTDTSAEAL
Procedure, shortened: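 Agonist EC50 taken as concentration giving half inhibition of forskolin-driven cAMP, normalized to forskolin maximum, from sigmoidal curves. Whole HEK-293 cells stably expressing hCB1, in HEPES/BSA-containing HBSS, exposed 30 min at 37° C. to compound with forskolin (90 uM in 3× dilution); cAMP read after lysis.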

T1 sequence (P21554 whole entry): as above

Row | Structure (SMILES) | IC50 [1] [nM] | IC50 [2] [nM] | hCB1 EC50 (cAMP ag, nM) [3] | EC50 [3] [nM]
1 | C=Cn1c(C)cc2cc(C(=O)c3cccc(Cl)c3Cl)sc21 [Comp 29] | > 10000 | 1000 to 10000 | NS (NS means “Not Significant,” which means less than 30% agonist activity when compared to the positive control.) | –
2 | Cc1cc2cc(C(=O)c3cccc(Cl)c3Cl)sc2n1CCN1CCOCC1 [Compound 1, (2,3-dichlorophenyl)(5-methyl-6-(2-morpholinoethyl)-6H-thieno[2,3-b]pyrrol-2-yl)methanone] | 100 to 1000 | < 100 | – | > 10000
3 | CCCn1c(C)cc2cc(C(=O)c3cccc(Cl)c3Cl)sc21 [Compound 3, (2,3-Dichlorophenyl)(5-methyl-6-propyl-6H-thieno[2,3-b]pyrrol-2-yl)methanone] | 1000 to 10000 | 100 to 1000 | NS (NS means “Not Significant,” which means less than 30% agonist activity when compared to the positive control.) | –
4 | Cc1cc2cc(C(=O)c3ccccc3Cl)sc2n1CCN1CCOCC1 [Compound 5, (2-Chlorophenyl)(5-methyl-6-(2-morpholinoethyl)-61-1-thieno[2,3-b]pyrrol-2-yl)methanone] | 100 to 1000 | < 100 | – | 100 to 1000
5 | Cc1cc2cc(C(=O)c3ccc(Cl)cc3)sc2n1CCN1CCOCC1 [Compound 6, (4-Chlorophenyl)(5-methyl-6-(2-morpholinoethyl)-6H-thieno[2,3-b]pyrrol-2-yl)methanone] | 1000 to 10000 | 100 to 1000 | NS (NS means “Not Significant,” which means less than 30% agonist activity when compared to the positive control.) | –
6 | Cc1cc2cc(C(=O)c3cccc(F)c3F)sc2n1CCN1CCOCC1 [Compound 8, (2,3-Difluorophenyl)(5-methyl-6-(2-morpholinoethyl)-6H-thieno[2,3-b]pyrrol-2-yl)methanone] | 1000 to 10000 | 100 to 1000 | NS (NS means “Not Significant,” which means less than 30% agonist activity when compared to the positive control.) | –
7 | Cc1cc2cc(C(=O)c3ccc(Cl)c(Cl)c3)sc2n1CCN1CCOCC1 [Compound 9, (3,4-Dichlorophenyl)(5-methyl-6-(2-morpholinoethyl)-6H-thieno[2,3-b]pyrrol-2-yl)methanone] | 1000 to 10000 | 100 to 1000 | NS (NS means “Not Significant,” which means less than 30% agonist activity when compared to the positive control.) | –
8 | Cc1cc2cc(C(=O)c3cccc4c3OCC4)sc2n1CCN1CCOCC1 [Compound 11, (2,3-Dihydrobenzofuran-7-yl)(5-methyl-6-(2-morpholinoethyl)-6H-thieno[2,3-b]pyrrol-2-yl)methanone] | 100 to 1000 | 100 to 1000 | – | 100 to 1000
9 | COc1ccccc1C(=O)c1cc2cc(C)n(CCN3CCOCC3)c2s1 [Compound 13, (2-Methoxyphenyl)(5-methyl-6-(2-morpholinoethyl)-6H-thieno[2,3-b]pyrrol-2-yl)methanone] | 100 to 1000 | < 100 | – | 100 to 1000
10 | COCCN(C)CCn1c(C)cc2cc(C(=O)c3ccc(OC)nc3)sc21 [Compound 157] | 100 to 1000 | – | NS (NS means “Not Significant,” which means less than 30% agonist activity when compared to the positive control.) | –
11 | COc1ccc(C(=O)c2cc3cc(C)n(CC(OC)OC)c3s2)cn1 [Compound 161, (6-(2,2-dimethoxyethyl)-5-methyl-6H-thieno[2,3-b]pyrrol-2-yl)(6-methoxypyridin-3-yl)methanone] | 100 to 1000 | – | NS (NS means “Not Significant,” which means less than 30% agonist activity when compared to the positive control.) | –
12 | Cc1cc2cc(C(=O)c3ccc(O)cc3F)sc2n1CCN1CCOCC1 [Compound 165, (2-fluoro-4-hydroxyphenyl)(5-methyl-6-(2-morpholinoethyl)-6H-thieno[2,3-b]pyrrol-2-yl)methanone] | 100 to 1000 | – | – | 100 to 1000

Source: patent US20130029970A1 (priority 2009, published 2013)
